Results as given in patent publication US8288350B2, “Methods to prevent and treat diseases” (Nour Heart, Inc., priority 2006, dated 2012).
Where no end group is shown, it is not given here. The star is where a group is joined. Boc = CC(C)(C)OC(=O)*

Legend:
[1] = test system: Neutrophils isolated from human peripheral blood; test: Inhibition of fMLF chemotactic activity (chemotaxis chamber); type: cell-based; details: FIG. 3
[2] = test system: Neutrophils isolated from human peripheral blood; test: Inhibition of neutrophil chemotaxis induced by human vascular Nourin (vein graft samples, 96 well chemotaxis plates); type: cell-based
Experimental: Isolated Human Vein Grafts: Patients' leg veins were removed from five patients scheduled for coronary bypass surgery. The samples for each patient were distended for 10 minutes at 300 mm Hg pressure and incubated in buffer (HBSS) for 1 hour at room temperature. Undistended vein grafts were incubated at room temperature in HBSS for one hour and then the solutions were tested for chemotactic activity.
Chemotaxis Assay: The chemotactic activity of vein samples was tested using standard chemotaxis assay. Briefly, neutrophils were isolated from human peripheral blood and labeled by fluorescence dye. These labeled neutrophils were used as migratory cells and placed on the top chamber of the 96 well chemotaxis plates. The vein samples were placed at the bottom wells of the plate. A filter was placed in between and the ability of the tested samples to stimulate the migration of neutrophils across the membrane was determined by incubating the chamber at 37° C. for 1 hour. The standard synthetic chemoattractant f-Met-Leu-Phe (f-MLF (SEQ ID NO:11)) was used as the positive control for 100% chemotactic response. Hank's Balanced Salt Solution (HBSS) was the negative control for random migration. Neutrophil migration was reported as the number of labeled neutrophils detected at the bottom wells which crossed the membrane filter in response to the test solutions. The samples were tested in triplicate wells.
Inhibition of the human vascular Nourin by the N-formylmethionyl blocker t-Boc-FLFLF (SEQ ID NO:2): t-Boc FLFLF (SEQ ID NO:2) is a FPR antagonist and was tested for its ability to inhibit Nourin activity on neutrophil migration. In the chemotaxis chamber, t-Boc-FLFLF (SEQ ID NO:2) was used at a final concentrations of 10^−5 Molar. […] In one human sample, t-Boc-FLFLF (SEQ ID NO:2) inhibited 100% of neutrophil chemotaxis. Similarly, the FPR antagonist Spinorphin inhibited neutrophil chemotaxis stimulated by Nourin.

[3] = test system: Neutrophils isolated from human peripheral blood; test: Inhibition of neutrophil chemotaxis induced by chemotactic factor released by H1N1-infected MDCK cells (modified chemotaxis chamber); type: cell-based; details: concentrations about 10^-5 to 10^-3 Molar; supernatant of MDCK cells incubated with H1N1 for 6 hours
[4] = Global warm ischemia by aortic cross clamping, then working Longerdorff heart; type: in vivo, dog
Experimental: Cyclocreatine (25 gm in 500 ml saline) was injected intravenously into a dog one hour before the induction of global warm ischemia. Control dogs received saline. All dogs underwent one hour of global warm ischemia by cross clamping the aorta. After the one hour of warm ischemia, hearts were removed, perfused for an additional four hours with buffer containing 1% cyclocreatine ([…]), and then placed on a working Longerdorff to measure cardiac function. After the initiation of the aortic cross clamping, cyclocreatine-treated heart continued to beat for 9 minutes during warm ischemia, while the control heart stopped beating after 2 minutes. Similarly, myocardial pH was 7.04 in the cyclocreatine-treated heart compared to pH 6.00 in control heart when measured 6 minutes after the induction of warm ischemia.
The results indicated a reduction of the caspase enzyme activities in the cyclocreatine dog (26-76% reduction of baseline) compared to the significant stimulation observed in control dogs (1.44-3.86-fold increase over baseline). […] Cyclocreatine treatment may stimulate the anti-apoptotic members of the family such as Bcl-2 and/or Bcl-x, or inhibit the pro-apoptotic members of the family such as Bak, Bax, and Bim.

t-Boc-Phe-Leu-Phe-Leu-Phe (Boc-FLFLF; not fully specified (residues 2, 4); printed as t-Boc-Phe-Leu-Phe-Leu-Phe)
inhibition of fMLF chemotactic activity [1]: inhibits | inhibition of neutrophil chemotaxis induced by vascular Nourin ([2]; 10^-5 M final concentration): up to 60% | inhibition of neutrophil chemotaxis induced by vascular Nourin, one human sample ([2]; one human sample): 100% | inhibition of neutrophil chemotaxis induced by viral chemotactic factor [3]: 30%-100%

NC1=NCCN1CC(=O)O [cyclocreatine]
myocardial pH ([4]; 6 minutes after induction of warm ischemia, control pH 6.00): 7.04 | reduction of caspase enzyme activities ([4]; control dogs 1.44-3.86-fold increase over baseline): 26-76 % reduction of baseline | time heart continued to beat during warm ischemia after aortic cross clamping ([4]; dog, 25 gm in 500 ml saline i.v. one hour before ischemia, control 2 minutes): 9 min | TNF-α released by monocytes ([4]; dog, in vivo): reduced | inflammation/pain and injury induced by inflammation ([4]; dog, in vivo): reduced | level of the cardiac-derived leukocyte factor ([4]; dog, in vivo): reduced | contractility on the Longerdorff working heart ([4]; one-hour analysis, control strong only first 15-20 minutes): strong contractility throughout the one-hour analysis | apoptosis as measured by caspase enzyme activity ([4]; treated heart vs controls): significant reduction | myocardial ATP compared to controls ([4]; treated heart vs controls): three-fold increase | intracellular edema as measured by MRI ([4]; vs control): reduced | myocardial tissue lactic acidosis (per MRI) ([4]; vs control): reduced | level of cell injury marker malondialdehyde ([4]; vs controls): reduced

LVVYPWT [Spinorphin, Leu-Val-Val-Tyr-Pro-Trp-Thr]
inhibition of neutrophil chemotaxis stimulated by Nourin [2]: inhibited
